The values that follow come from patent US9346793B2, “Hydroxylated aminotriazole derivatives as ALX receptor agonists” (Actelion Pharmaceuticals, LTD., priority 2010, dated 2016).

The structures appear in SMILES notation.

Sequence of recombinant human ALX receptor (HEK293-hALXR-Gα16 cells) (P25090 whole entry): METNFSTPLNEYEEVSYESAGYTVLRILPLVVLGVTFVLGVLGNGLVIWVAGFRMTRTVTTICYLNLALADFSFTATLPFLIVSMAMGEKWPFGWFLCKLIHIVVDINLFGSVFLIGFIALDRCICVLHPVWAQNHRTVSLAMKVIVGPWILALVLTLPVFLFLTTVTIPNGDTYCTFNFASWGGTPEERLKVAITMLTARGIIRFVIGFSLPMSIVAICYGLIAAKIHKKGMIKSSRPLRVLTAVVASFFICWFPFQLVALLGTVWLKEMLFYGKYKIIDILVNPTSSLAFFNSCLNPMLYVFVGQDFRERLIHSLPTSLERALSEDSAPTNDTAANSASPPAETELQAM

In the assay the target is recombinant human ALX receptor (HEK293-hALXR-Gα16 cells) (Homo sapiens (Human), UniProt P25090). As to the kind of experiment: Intracellular calcium measurements (FLIPR), ALX receptor agonistic activity. In kind it is cell-based. As to conditions: normalized to 10 nM WKYMVm, read-out: EC50 (agonistic activity with respect to the ALX receptor). The method, then:
The ALX receptor agonistic activity of the compounds of formula (I) is determined in accordance with the following experimental method.
Intracellular Calcium Measurements:
Cells expressing recombinant human ALX receptor and the G-protein Gα16 (HEK293-hALXR-Gα16) were grown to 80% confluency in Growing Medium (GM). Cells were detached from culture dishes with a cell dissociation buffer (Invitrogen, 13151-014), and collected by centrifugation at 1,000 rpm at rt for 5 min in Assay Buffer (AB) (equal parts of Hank's BSS (Gibco, 14065-049) and DMEM without Phenol Red (Gibco, 11880-028)). After 60 min incubation at 37° C. under 5% CO2 in AB supplemented with 1 μM Fluo-4 (AM) (Invitrogen, F14202) and 20 mM HEPES (Gibco, 15630-056), the cells were washed and resuspended in AB. They were then seeded onto 384-well FLIPR assay plates (Greiner, 781091) at 50,000 cells in 70 μl per well and sedimented by centrifugation at 1,000 rpm for 1 min. Stock solutions of test compounds were made up at a concentration of 10 mM in DMSO, and serially diluted in AB to concentrations required for activation dose response curves. WKYMVm (Phoenix Peptides) was used as a reference agonist. A FLIPR Tetra instrument (Molecular Devices) was operated according to the manufacturers standard instructions, adding 4 μl of test compound dissolved at 10 mM in DMSO and diluted prior to the experiment in assay buffer to obtain the desired final concentration. Changes in fluorescence were monitored before and after the addition of test compounds at lex=488 nm and lem=540 nm. Emission peak values above base level after compounds addition were exported after base line subtraction. Values were normalized to high-level control (WKYMVm compound, 10 nM final concentration) after subtraction of the base line value (AB addition).
In general terms: Calcium flux is commonly read through the fluorescence of an indicator in the cells.
Consider `Cc1cccc(-c2oc(C)nc2C(=O)Nc2cnn(Cc3nc(C(C)(C)O)co3)n2)c1` [Example 1, 2-Methyl-5-m-tolyl-oxazole-4-carboxylic acid {2-[4-(1-hydroxy-1-methyl-ethyl)-oxazol-2-ylmethyl]-2H-[1,2,3]triazol-4-yl}-amide], for which the EC50 (in general, the midpoint of the concentration-response curve) stood at 11.8 nM. For `Cc1cccc(-c2oc(C)nc2C(=O)Nc2cnn(Cc3nc(C4(O)CC4)co3)n2)c1` [Example 2, 2-Methyl-5-m-tolyl-oxazole-4-carboxylic acid {2-[4-(1-hydroxy-cyclopropyl)-oxazol-2-ylmethyl]-2H-[1,2,3]triazol-4-yl}-amide] the value was 7.6 nM; for `CC(C)(O)c1coc(Cn2ncc(NC(=O)c3ncoc3-c3ccccc3)n2)n1` [Example 3, 5-Phenyl-oxazole-4-carboxylic acid {2-[4-(1-hydroxy-1-methyl-ethyl)-oxazol-2-ylmethyl]-2H-[1,2,3]triazol-4-yl}-amide], 8 nM; for `CC(C)(O)c1coc(Cn2ncc(NC(=O)c3ncoc3-c3ccc(F)cc3)n2)n1` [Example 4, 5-(4-Fluoro-phenyl)-oxazole-4-carboxylic acid {2-[4-(1-hydroxy-1-methyl-ethyl)-oxazol-2-ylmethyl]-2H-[1,2,3]triazol-4-yl}-amide], 51 nM.

Regarding `Cc1nc(C(=O)Nc2cnn(Cc3nc(C(C)(C)O)co3)n2)c(-c2cccc(C(F)(F)F)c2)o1` [Example 5, 2-Methyl-5-(3-trifluoromethyl-phenyl)-oxazole-4-carboxylic acid {2-[4-(1-hydroxy-1-methyl-ethyl)-oxazol-2-ylmethyl]-2H-[1,2,3]triazol-4-yl}-amide], the EC50 was 21.7 nM.

For `COc1cccc(-c2oc(C)nc2C(=O)Nc2cnn(Cc3nc(C(C)(C)O)co3)n2)c1` [Example 6, 5-(3-Methoxy-phenyl)-2-methyl-oxazole-4-carboxylic acid {2-[4-(1-hydroxy-1-methyl-ethyl)-oxazol-2-ylmethyl]-2H-[1,2,3]triazol-4-yl}-amide], the EC50 came to 12.7 nM. Take `Cc1nc(C(=O)Nc2cnn(Cc3nc(C(C)(C)O)co3)n2)c(-c2cccc(Cl)c2)o1` [Example 7, 5-(3-Chloro-phenyl)-2-methyl-oxazole-4-carboxylic acid {2-[4-(1-hydroxy-1-methyl-ethyl)-oxazol-2-ylmethyl]-2H-[1,2,3]triazol-4-yl}-amide]: the EC50 was found to be 10.1 nM.

For `CC(C)(O)c1coc(Cn2ncc(NC(=O)c3ncoc3-c3cccc(Cl)c3)n2)n1` [Example 8, 5-(3-Chloro-phenyl)-oxazole-4-carboxylic acid {2-[4-(1-hydroxy-1-methyl-ethyl)-oxazol-2-ylmethyl]-2H-[1,2,3]triazol-4-yl}-amide], the EC50 worked out at 17.8 nM.

On to `COc1cccc(-c2ocnc2C(=O)Nc2cnn(Cc3nc(C(C)(C)O)co3)n2)c1` [Example 9, 5-(3-Methoxy-phenyl)-oxazole-4-carboxylic acid {2-[4-(1-hydroxy-1-methyl-ethyl)-oxazol-2-ylmethyl]-2H-[1,2,3]triazol-4-yl}-amide], for which the 50% effective concentration (EC50) amounted to 17.2 nM. For `Cc1nc(C(=O)Nc2cnn(Cc3nc(C(C)(C)O)co3)n2)c(-c2ccccc2)o1` [Example 10, 2-Methyl-5-phenyl-oxazole-4-carboxylic acid {2-[4-(1-hydroxy-1-methyl-ethyl)-oxazol-2-ylmethyl]-2H-[1,2,3]triazol-4-yl}-amide] the value was 10.3 nM; for `CC(C)(O)c1coc(Cn2ncc(NC(=O)c3ncsc3-c3cccc(F)c3)n2)n1` [Example 11, 5-(3-Fluoro-phenyl)-thiazole-4-carboxylic acid {2-[4-(1-hydroxy-1-methyl-ethyl)-oxazol-2-ylmethyl]-2H-[1,2,3]triazol-4-yl}-amide], 82.3 nM. In the case of `Cc1nc(C(=O)Nc2cnn(Cc3nc(C(C)(C)O)co3)n2)c(-c2cccc(OC(F)(F)F)c2)o1` [Example 12, 2-Methyl-5-(3-trifluoromethoxy-phenyl)-oxazole-4-carboxylic acid {2-[4-(1-hydroxy-1-methyl-ethyl)-oxazol-2-ylmethyl]-2H-[1,2,3]triazol-4-yl}-amide], the EC50 was found to be 32.3 nM. Consider `Cc1nc(C(=O)Nc2cnn(Cc3nc(C(C)(C)O)co3)n2)c(-c2cccc(F)c2)o1` [Example 13, 5-(3-Fluoro-phenyl)-2-methyl-oxazole-4-carboxylic acid {2-[4-(1-hydroxy-1-methyl-ethyl)-oxazol-2-ylmethyl]-2H-[1,2,3]triazol-4-yl}-amide], for which the EC50 came out at 13.2 nM. Consider `Cc1cccc(-c2ocnc2C(=O)Nc2cnn(Cc3nc(C(C)(C)O)co3)n2)c1` [Example 14, 5-m-Tolyl-oxazole-4-carboxylic acid {2-[4-(1-hydroxy-1-methyl-ethyl)-oxazol-2-ylmethyl]-2H-[1,2,3]triazol-4-yl}-amide], for which the EC50 was determined as 11.3 nM.

With `Cc1cccc(-c2oc(C3CC3)nc2C(=O)Nc2cnn(Cc3nc(C(C)(C)O)co3)n2)c1` [Example 15, 2-Cyclopropyl-5-m-tolyl-oxazole-4-carboxylic acid {2-[4-(1-hydroxy-1-methyl-ethyl)-oxazol-2-ylmethyl]-2H-[1,2,3]triazol-4-yl}-amide], the EC50 was determined as 52.9 nM. As for `Cc1cccc(-c2oc(C)nc2C(=O)Nc2cnn(Cc3nc(C(C)(C)O)cs3)n2)c1` [N-(2-((4-(2-Hydroxypropan-2-yl)thiazol-2-yl)methyl)-2H-1,2,3-triazol-4-yl)-2-methyl-5-(m-tolyl)oxazole-4-carboxamide, reference compound], the EC50 worked out at 245 nM.
